Source: ChEMBL document CHEMBL4145597, “BMS-986163, a Negative Allosteric Modulator of GluN2B with Potential Utility in Major Depressive Disorder” (ACS Med Chem Lett, 2018)
In brackets after ≈: the same amount, converted by molar mass. Activity calls are given as the source filed them. No cut-off for these calls is given here.

Columns and labels:
[1] = target: T1, Cytochrome P450 2C9 (Homo sapiens, UniProt P11712); experiment: Time dependent inhibition of CYP2C9 in human liver microsomes; format: ADME
[2] = target: Glutamate receptor ionotropic, NMDA 2A (Homo sapiens) (UniProt Q12879); experiment: Negative allosteric modulation of human GluN2A receptor expressed in Xenopus laevis oocytes assessed as inhibition of glutamate/glycine-induced channel current at 3 uM after 10 to 15 mins by two electrode voltage clamp based electrophysiology assay; format: cell-based
[3] = Unbound plasma concentration in guinea pig at 2 to 10 mg/kg, iv; format: ADME, organism-based, Cavia porcellus; conditions: in vivo
[4] = target: T2, Cytochrome P450 3A4 (Homo sapiens, UniProt P08684); experiment: Inhibition of CYP3A4 in human liver microsomes using BFC/BZR as substrate; format: ADME
[5] = target: T3, Cytochrome P450 2B6 (Homo sapiens, UniProt P20813); experiment: Inhibition of CYP2B6 in human liver microsomes; format: ADME
[6] = Plasma concentration in CD-1 mouse at 0.1 to 1 mg/kg, iv; format: ADME, organism-based; conditions: in vivo
[7] = Dissociation constant, pKa of the compound by spectrophotometric method; format: physicochemical
[8] = Fraction unbound in mouse plasma; format: ADME, cell-free
[9] = Binding affinity to GluN2B receptor in cynomolgus monkey cortex; parameters: species or system Macaca fascicularis
[10] = test system: Salmonella typhimurium; experiment: Mutagenicity in Salmonella typhimurium by Ames test; format: toxicity, organism-based; conditions: salmonella enterica subsp. enterica serovar typhimurium
[11] = target: T4, Cytochrome P450 2D6 (Homo sapiens, UniProt P10635); experiment: Inhibition of CYP2D6 in human liver microsomes; format: ADME
[12] = Fraction unbound in rat plasma; format: ADME, cell-free
[13] = Clearance in cynomolgus monkey at 1 mg/kg, iv administered as 5 mins infusion; format: ADME, organism-based, Macaca fascicularis; conditions: in vivo
[14] = Volume of distribution at steady state in Sprague-Dawley rat at 1 mg/kg, iv administered as 5 mins infusion; format: ADME, organism-based; conditions: in vivo, read-out: Vdss
[15] = target: Glutamate receptor ionotropic, NMDA 2B (Homo sapiens, UniProt Q05586+Q13224); experiment: Negative allosteric modulation of human GluN2B receptor expressed in Xenopus laevis oocytes assessed as inhibition of glutamate/glycine-induced channel current after 15 to 20 mins by two electrode voltage clamp based electrophysiology assay; format: cell-based
[16] = Half life in CD-1 mouse at 1 mg/kg, iv administered as 5 mins infusion; format: ADME, organism-based; conditions: in vivo
[17] = Half life in mouse liver microsomes; format: ADME, microsome
[18] = Half life in Sprague-Dawley rat at 1 mg/kg, iv administered as 5 mins infusion; format: ADME, organism-based; conditions: in vivo
[19] = Prodrug activation in dog assessed as BMS-986169 level in blood at 37 degC; format: tissue-based, Canis lupus familiaris
[20] = Fraction unbound in cynomolgus monkey plasma; format: ADME, cell-free, Macaca fascicularis
[21] = AUClast in CD-1 mouse at 1 mg/kg, iv administered as 5 mins infusion; format: ADME, organism-based; parameters: dose 1 mg/kg, time 0 - last, route intravenous; conditions: in vivo
[22] = target: T5, Cytochrome P450 2C8 (Homo sapiens, UniProt P10632); experiment: Inhibition of CYP2C8 in human liver microsomes; format: ADME
[23] = AUClast in cynomolgus monkey at 1 mg/kg, iv administered as 5 mins infusion; format: ADME, organism-based, Macaca fascicularis; parameters: dose 1 mg/kg, route intravenous, time 0 - last; conditions: in vivo
[24] = target: Glutamate receptor ionotropic, NMDA 2B (Homo sapiens, UniProt Q13224); experiment: Binding affinity to GluN2B receptor in human cortex
[25] = Volume of distribution at steady state in Beagle dog at 1 mg/kg, iv administered as 5 mins infusion; format: ADME, organism-based, Canis lupus familiaris; conditions: in vivo, read-out: Vdss
[26] = target: T6, Cytochrome P450 2C19 (Homo sapiens, UniProt P33261); experiment: Inhibition of CYP2C19 in human liver microsomes; format: ADME
[27] = test system: Mus musculus; experiment: Ex vivo receptor occupancy at GluN2B receptor in CD-1 mouse forebrain membranes assessed as reduction in [3H]Ro 25-6981 receptor labeling at 1 mg/kg, iv incubated for 5 mins by topcount micro scintillation counting method; format: functional
[28] = Half life in cynomolgus monkey liver microsomes; format: ADME, Macaca fascicularis, microsome
[29] = target: T5, Cytochrome P450 2C8; experiment: Time dependent inhibition of CYP2C8 in human liver microsomes; format: ADME
[30] = Half life in human liver microsomes; format: ADME, microsome
[31] = Aqueous solubility of the compound at pH 7.4; format: physicochemical; conditions: aqueous medium
[32] = Half life in dog liver microsomes; format: ADME, Canis lupus familiaris, microsome
[33] = target: T7, Cytochrome P450 1A2 (Homo sapiens, UniProt P05177); experiment: Inhibition of CYP1A2 in human liver microsomes; format: ADME
[34] = Octanol/water buffer partition co-efficient, log D of the compound at pH 7.4 by shake-flask method; format: physicochemical
[35] = target: T2, Cytochrome P450 3A4; experiment: Time dependent inhibition of CYP3A4 in human liver microsomes using BFC/BZR as substrate; format: ADME
[36] = Prodrug activation in cynomolgus monkey assessed as BMS-986169 level in plasma at 1.2 mg/kg, iv measured 10 mins post dose; format: organism-based, Macaca fascicularis; conditions: in vivo
[37] = Oral bioavailability in rat at 5 mg/kg; format: ADME, organism-based; conditions: in vivo
[38] = Fraction unbound in human plasma; format: ADME, cell-free
[39] = Ratio of drug uptake in CD-1 mouse brain to plasma at 0.1 to 1 mg/kg, iv; format: ADME, organism-based; conditions: read-out: BPR
[40] = Clearance in Beagle dog at 1 mg/kg, iv administered as 5 mins infusion; format: ADME, organism-based, Canis lupus familiaris; conditions: in vivo
[41] = Prodrug activation in human assessed as BMS-986169 level in blood at 37 degC; format: tissue-based
[42] = target: T3, Cytochrome P450 2B6; experiment: Time dependent inhibition of CYP2B6 in human liver microsomes; format: ADME
[43] = test system: Mus musculus; experiment: Ex vivo receptor occupancy at GluN2B receptor in CD-1 mouse forebrain membranes assessed as reduction in [3H]Ro 25-6981 receptor labeling at 3 mg/kg, iv incubated for 5 mins by topcount micro scintillation counting method; format: functional
[44] = Prodrug activation in monkey assessed as BMS-986169 level in blood at 37 degC; format: tissue-based, Macaca mulatta; conditions: rhesus monkey
[45] = Volume of distribution at steady state in cynomolgus monkey at 1 mg/kg, iv administered as 5 mins infusion; format: ADME, organism-based, Macaca fascicularis; conditions: in vivo, read-out: Vdss
[46] = target: T1, Cytochrome P450 2C9; experiment: Inhibition of CYP2C9 in human liver microsomes; format: ADME
[47] = Fraction unbound in dog plasma; format: ADME, cell-free, Canis lupus familiaris
[48] = Prodrug activation in rat assessed as BMS-986169 level in blood at 37 degC; format: tissue-based
[49] = target: Adrenergic receptor alpha-1 (Homo sapiens) (UniProt P35348+P25100+P35368); experiment: Inhibition of human adrenergic alpha 1 receptor; format: protein assay
[50] = Volume of distribution at steady state in CD-1 mouse at 1 mg/kg, iv administered as 5 mins infusion; format: ADME, organism-based; conditions: in vivo, read-out: Vdss
[51] = target: T7, Cytochrome P450 1A2; experiment: Time dependent inhibition of CYP1A2 in human liver microsomes; format: ADME
[52] = target: T4, Cytochrome P450 2D6; experiment: Time dependent inhibition of CYP2D6 in human liver microsomes; format: ADME
[53] = target: T6, Cytochrome P450 2C19; experiment: Time dependent inhibition of CYP2C19 in human liver microsomes; format: ADME
[54] = test system: Cavia porcellus; experiment: Cardiotoxicity in guinea pig assessed as increase in QTcB at 2 to 10 mg/kg, iv; format: toxicity, organism-based; conditions: in vivo
[55] = Half life in rat liver microsomes; format: ADME, microsome
[56] = target: Glutamate receptor ionotropic, NMDA 2C (Homo sapiens) (UniProt Q14957); experiment: Negative allosteric modulation of human GluN2C receptor expressed in Xenopus laevis oocytes assessed as inhibition of glutamate/glycine-induced channel current at 3 uM after 10 to 15 mins by two electrode voltage clamp based electrophysiology assay; format: cell-based
[57] = Half life in cynomolgus monkey at 1 mg/kg, iv administered as 5 mins infusion; format: ADME, organism-based, Macaca fascicularis; conditions: in vivo
[58] = Clearance in Sprague-Dawley rat at 1 mg/kg, iv administered as 5 mins infusion; format: ADME, organism-based; conditions: in vivo
[59] = AUClast in Sprague-Dawley rat at 1 mg/kg, iv administered as 5 mins infusion; format: ADME, organism-based; parameters: dose 1 mg/kg, route intravenous, time 0 - last; conditions: in vivo
[60] = Clearance in CD-1 mouse at 1 mg/kg, iv administered as 5 mins infusion; format: ADME, organism-based; conditions: in vivo
[61] = AUClast in Beagle dog at 1 mg/kg, iv administered as 5 mins infusion; format: ADME, organism-based, Canis lupus familiaris; parameters: dose 1 mg/kg, time 0 - last, route intravenous; conditions: in vivo
[62] = test system: Rhesus monkey; experiment: AUC (0 to 24 hrs) in monkey at 36 mg/kg, iv assessed as BMS-986169 level in plasma; format: ADME, organism-based, Macaca mulatta; parameters: dose 36 mg/kg, time < 24 hr, route intravenous; conditions: in vivo
[63] = target: Glutamate receptor ionotropic, NMDA 2D (Homo sapiens) (UniProt O15399); experiment: Negative allosteric modulation of human GluN2D receptor expressed in Xenopus laevis oocytes assessed as inhibition of glutamate/glycine-induced channel current at 3 uM after 10 to 15 mins by two electrode voltage clamp based electrophysiology assay; format: cell-based
[64] = Half life in Beagle dog at 1 mg/kg, iv administered as 5 mins infusion; format: ADME, organism-based, Canis lupus familiaris; conditions: in vivo

T5 sequence (P10632 whole entry, the tested form may be a part): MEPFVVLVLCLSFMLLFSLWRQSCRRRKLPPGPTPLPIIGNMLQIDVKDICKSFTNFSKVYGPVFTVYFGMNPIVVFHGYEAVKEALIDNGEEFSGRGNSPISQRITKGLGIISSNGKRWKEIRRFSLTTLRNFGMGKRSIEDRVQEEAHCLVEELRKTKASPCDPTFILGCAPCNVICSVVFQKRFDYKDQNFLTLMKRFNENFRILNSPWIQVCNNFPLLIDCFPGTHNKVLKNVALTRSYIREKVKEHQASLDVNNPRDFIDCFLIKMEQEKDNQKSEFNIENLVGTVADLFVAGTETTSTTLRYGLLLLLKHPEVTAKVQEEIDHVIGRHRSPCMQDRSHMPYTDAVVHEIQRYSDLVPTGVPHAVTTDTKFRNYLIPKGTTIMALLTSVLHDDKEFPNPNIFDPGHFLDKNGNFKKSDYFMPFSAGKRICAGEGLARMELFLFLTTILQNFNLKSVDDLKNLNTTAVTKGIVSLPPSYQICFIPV
T2 sequence (P08684 whole entry): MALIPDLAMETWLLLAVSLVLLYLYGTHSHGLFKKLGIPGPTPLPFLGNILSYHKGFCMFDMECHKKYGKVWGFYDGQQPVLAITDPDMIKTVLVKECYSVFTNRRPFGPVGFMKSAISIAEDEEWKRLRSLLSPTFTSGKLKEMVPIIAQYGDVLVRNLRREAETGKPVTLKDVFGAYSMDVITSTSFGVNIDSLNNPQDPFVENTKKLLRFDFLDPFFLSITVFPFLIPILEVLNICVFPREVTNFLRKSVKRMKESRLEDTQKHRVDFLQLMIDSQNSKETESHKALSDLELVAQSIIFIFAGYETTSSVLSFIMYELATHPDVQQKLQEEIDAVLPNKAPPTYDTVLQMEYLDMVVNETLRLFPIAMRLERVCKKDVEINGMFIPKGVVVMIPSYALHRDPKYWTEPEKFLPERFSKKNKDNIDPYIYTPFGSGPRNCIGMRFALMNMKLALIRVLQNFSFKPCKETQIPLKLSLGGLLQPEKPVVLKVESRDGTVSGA
T6 sequence (P33261 whole entry): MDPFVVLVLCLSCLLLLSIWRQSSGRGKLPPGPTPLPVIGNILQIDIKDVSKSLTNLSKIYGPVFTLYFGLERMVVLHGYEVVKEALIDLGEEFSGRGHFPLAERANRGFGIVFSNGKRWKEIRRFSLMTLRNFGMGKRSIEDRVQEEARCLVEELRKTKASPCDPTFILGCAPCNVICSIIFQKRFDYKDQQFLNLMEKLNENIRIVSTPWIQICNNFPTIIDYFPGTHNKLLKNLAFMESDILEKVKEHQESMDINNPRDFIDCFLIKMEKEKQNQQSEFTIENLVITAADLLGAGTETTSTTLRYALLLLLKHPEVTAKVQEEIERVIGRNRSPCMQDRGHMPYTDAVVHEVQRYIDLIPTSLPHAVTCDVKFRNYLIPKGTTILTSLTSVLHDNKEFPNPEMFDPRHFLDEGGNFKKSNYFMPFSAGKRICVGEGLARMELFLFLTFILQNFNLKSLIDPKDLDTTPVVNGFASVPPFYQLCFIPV
T7 sequence (P05177 whole entry): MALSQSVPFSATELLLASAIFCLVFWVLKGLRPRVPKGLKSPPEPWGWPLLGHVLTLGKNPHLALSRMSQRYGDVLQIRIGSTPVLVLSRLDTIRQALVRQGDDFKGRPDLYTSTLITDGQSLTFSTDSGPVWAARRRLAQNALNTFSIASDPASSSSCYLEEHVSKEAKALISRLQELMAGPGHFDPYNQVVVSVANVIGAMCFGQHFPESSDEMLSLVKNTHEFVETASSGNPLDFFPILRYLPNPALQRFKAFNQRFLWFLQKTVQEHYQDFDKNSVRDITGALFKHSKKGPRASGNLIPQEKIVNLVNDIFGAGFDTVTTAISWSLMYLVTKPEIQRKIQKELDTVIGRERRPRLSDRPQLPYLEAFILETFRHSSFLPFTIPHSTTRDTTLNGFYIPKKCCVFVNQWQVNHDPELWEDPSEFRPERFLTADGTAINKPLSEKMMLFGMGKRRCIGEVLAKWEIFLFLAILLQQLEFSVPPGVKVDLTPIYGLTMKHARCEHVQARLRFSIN
T4 sequence (P10635 whole entry): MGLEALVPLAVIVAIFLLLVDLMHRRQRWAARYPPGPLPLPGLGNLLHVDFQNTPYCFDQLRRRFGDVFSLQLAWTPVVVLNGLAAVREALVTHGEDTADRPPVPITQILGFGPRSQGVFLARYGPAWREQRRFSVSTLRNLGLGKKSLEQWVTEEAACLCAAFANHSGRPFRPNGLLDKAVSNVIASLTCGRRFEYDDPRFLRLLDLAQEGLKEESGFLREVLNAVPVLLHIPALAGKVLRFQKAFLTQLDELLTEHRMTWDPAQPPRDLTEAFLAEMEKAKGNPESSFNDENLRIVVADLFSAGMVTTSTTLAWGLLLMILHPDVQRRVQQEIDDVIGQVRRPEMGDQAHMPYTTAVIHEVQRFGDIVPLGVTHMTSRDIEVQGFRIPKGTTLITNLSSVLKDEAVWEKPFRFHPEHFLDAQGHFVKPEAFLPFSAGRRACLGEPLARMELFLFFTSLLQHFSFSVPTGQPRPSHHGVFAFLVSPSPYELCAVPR
T3 sequence (P20813 whole entry): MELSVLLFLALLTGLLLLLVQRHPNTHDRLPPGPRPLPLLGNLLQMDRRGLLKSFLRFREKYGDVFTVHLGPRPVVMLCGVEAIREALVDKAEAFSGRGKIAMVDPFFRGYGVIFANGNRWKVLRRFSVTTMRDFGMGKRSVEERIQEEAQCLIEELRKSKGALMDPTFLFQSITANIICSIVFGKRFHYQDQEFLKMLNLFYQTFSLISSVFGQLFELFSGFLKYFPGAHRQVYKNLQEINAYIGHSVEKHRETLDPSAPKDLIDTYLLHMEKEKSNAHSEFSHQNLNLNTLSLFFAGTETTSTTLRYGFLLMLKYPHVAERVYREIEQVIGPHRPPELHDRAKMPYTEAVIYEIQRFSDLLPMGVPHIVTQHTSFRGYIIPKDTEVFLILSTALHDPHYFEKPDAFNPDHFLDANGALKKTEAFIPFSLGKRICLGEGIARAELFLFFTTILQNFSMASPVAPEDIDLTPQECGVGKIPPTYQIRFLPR
T1 sequence (P11712 whole entry): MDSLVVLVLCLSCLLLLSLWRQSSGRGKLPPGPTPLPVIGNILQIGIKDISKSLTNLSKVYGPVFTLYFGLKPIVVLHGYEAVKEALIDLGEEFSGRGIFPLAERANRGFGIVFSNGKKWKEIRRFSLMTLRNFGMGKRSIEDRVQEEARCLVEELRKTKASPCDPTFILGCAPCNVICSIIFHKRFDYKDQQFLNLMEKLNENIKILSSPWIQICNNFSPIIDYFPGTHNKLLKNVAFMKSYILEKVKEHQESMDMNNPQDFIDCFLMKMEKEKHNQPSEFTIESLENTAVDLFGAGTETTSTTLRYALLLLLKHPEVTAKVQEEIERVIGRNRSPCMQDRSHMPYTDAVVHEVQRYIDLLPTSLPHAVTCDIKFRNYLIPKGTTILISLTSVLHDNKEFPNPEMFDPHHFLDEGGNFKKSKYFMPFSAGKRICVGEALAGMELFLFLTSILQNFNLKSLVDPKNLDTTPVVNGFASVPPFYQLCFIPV
Sequence of Glutamate receptor ionotropic, NMDA 2A (Homo sapiens) (Q12879 23-1464 limits assumed): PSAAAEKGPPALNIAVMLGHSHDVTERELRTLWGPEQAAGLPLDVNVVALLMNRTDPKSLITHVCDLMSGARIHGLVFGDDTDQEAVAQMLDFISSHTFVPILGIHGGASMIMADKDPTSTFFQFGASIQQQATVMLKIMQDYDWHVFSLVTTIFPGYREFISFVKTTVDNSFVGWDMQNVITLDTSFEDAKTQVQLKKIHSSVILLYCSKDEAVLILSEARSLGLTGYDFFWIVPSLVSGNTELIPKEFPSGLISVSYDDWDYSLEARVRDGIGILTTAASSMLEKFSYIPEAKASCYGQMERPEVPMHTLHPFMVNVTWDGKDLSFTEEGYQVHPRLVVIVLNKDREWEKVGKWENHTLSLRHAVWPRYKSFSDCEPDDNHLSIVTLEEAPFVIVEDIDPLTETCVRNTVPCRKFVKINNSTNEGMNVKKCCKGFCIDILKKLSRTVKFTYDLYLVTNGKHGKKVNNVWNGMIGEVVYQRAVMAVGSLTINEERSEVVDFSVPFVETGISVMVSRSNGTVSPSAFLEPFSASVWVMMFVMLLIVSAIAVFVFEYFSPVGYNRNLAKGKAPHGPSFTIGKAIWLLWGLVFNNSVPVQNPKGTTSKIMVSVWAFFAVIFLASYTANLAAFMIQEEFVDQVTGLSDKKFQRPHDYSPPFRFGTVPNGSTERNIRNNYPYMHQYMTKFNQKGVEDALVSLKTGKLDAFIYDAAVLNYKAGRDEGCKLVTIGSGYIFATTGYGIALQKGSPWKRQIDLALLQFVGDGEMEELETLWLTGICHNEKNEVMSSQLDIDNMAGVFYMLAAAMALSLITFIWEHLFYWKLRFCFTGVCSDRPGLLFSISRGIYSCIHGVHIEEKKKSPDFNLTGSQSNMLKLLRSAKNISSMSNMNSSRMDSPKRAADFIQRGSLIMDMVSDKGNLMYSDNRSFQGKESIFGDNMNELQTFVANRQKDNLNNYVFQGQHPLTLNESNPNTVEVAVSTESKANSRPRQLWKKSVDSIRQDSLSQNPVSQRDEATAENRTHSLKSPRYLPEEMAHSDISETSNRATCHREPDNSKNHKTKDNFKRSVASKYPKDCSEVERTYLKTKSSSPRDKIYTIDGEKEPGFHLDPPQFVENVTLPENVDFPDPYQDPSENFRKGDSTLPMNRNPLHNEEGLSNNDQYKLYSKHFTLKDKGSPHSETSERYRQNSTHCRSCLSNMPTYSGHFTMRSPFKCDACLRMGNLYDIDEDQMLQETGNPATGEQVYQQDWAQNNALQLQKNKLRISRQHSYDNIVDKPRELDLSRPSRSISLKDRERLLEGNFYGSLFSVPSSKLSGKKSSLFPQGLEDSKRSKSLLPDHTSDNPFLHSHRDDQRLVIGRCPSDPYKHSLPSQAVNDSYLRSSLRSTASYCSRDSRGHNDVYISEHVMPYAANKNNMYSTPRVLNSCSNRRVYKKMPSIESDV

SMILES: Cc1ccc(CN2CC[C@@H](N3CC[C@@H](c4ccc(O)cc4)[C@H](F)C3)C2=O)cc1
- TDI [1]: Not Active
- inhibition [2]: -2.4%
- Cp(f) [3]: <= 19 uM
- IC50 [4]: > 18 µM
- IC50 [5]: > 18 µM
- concentration [6]: 270 to 1100 nM
- pKa [7]: 4.4
- fraction unbound [8]: 0.12
- Ki [9]: 0.0042 µM
- Activity [10]: Non-Toxic
- IC50 [11]: > 18 µM
- fraction unbound [12]: 0.09
- clearance [13]: 15 mL/min/kg
- Vd [14]: 2.3 L/kg
- IC50 [15]: 0.024 µM
- half-life [16]: 216 min
- half-life [17]: 3.5 min
- half-life [18]: 54 min
- Drug metabolism [19]: Metabolite_Detected
- fraction unbound [20]: 0.11
- AUC(0-t) at 5 min [21]: 0.53 µM·h
- IC50 [22]: > 18 µM
- AUC(0-t) at 5 min [23]: 2.7 µM·h
- Ki [24]: 0.0063 µM
- Vd [25]: 2.1 L/kg
- IC50 [26]: > 18 µM
- Occ [27]: 73%
- half-life [28]: 12 min
- TDI [29]: Not Active
- half-life [30]: 25 min
- solubility [31]: 2 µg/mL (≈ 5.23 µM)
- half-life [32]: 6 min
- IC50 [33]: > 18 µM
- logD [34]: 2.9
- TDI [35]: Not Active
- Drug metabolism [36]: Metabolite_Detected
- bioavailability [37]: 2.5%
- fraction unbound [38]: 0.06
- Kp [39]: 2.8
- clearance [40]: 17 mL/min/kg
- Drug metabolism [41]: Metabolite_Detected
- TDI [42]: Not Active
- Occ [43]: 95%
- Drug metabolism [44]: Metabolite_Detected
- Vd [45]: 1.7 L/kg
- IC50 [46]: > 18 µM
- fraction unbound [47]: 0.07
- Drug metabolism [48]: Metabolite_Detected
- inhibition [49]: inactive
- Vd [50]: 8.2 L/kg
- TDI [51]: Not Active
- TDI [52]: Not Active
- TDI [53]: Not Active
- Activity [54]: Non-Toxic
- half-life [55]: 2.7 min
- inhibition [56]: 8.6%
- half-life [57]: 90 min
- clearance [58]: 54 mL/min/kg
- AUC(0-t) at 5 min [59]: 1.3 µM·h
- clearance [60]: 75 mL/min/kg
- AUC(0-t) at 5 min [61]: 2.5 µM·h
- AUC [62]: 88 µM·h
- inhibition [63]: 7%
- half-life [64]: 126 min
